Data: patent US20040214158A1, “Treatment of human papillomavirus (hpv)-infected cells” (priority 2000, published 2004)

What was measured:
CaSki cells [1] = assay: MTS cell proliferation assay, GCV/ACV on transfected CaSki cells; details: for effect on cell viability: CaSki cells mock-transfected or transfected with control plasmid pNSGL0; for growth inhibition: CaSki cells transfected with HPV 16 LCR-driven HSV 1-TK plasmid, 20-30 μg/ml for 6-8 days
Procedure: All transfections were performed by calcium phosphate mediated transfection using the Profection Mammalian Transfection Systems (Promega, Wis.) according to the manufacturer's instructions. Cells were seeded at a density of 2×10^5 cells in each well in two mls of DMEM and grown to 50-60% confluence. One μg of plasmid DNA was used for transfecting each cell line. The calcium phosphate-DNA mix was overlaid on the cells for four to six hours and then replaced by two mls of complete medium. For mock-transfections, no DNA was added to the calcium phosphate transfection reagent. To measure promoter activity with a standard luciferase assay (Promega, Wis.) the transfected cells were harvested after 24-48 hours. To analyze HSV 1-TK gene expression by RT-PCR, the transfected cells were harvested 48-60 hours after transfection.
The CaSki, SiHa, HSC3 and HeLa cell lines were transfected with the pNSGLTK-8 or pNSGL0 plasmids or mock transfected with no plasmid. […] The absorbance at 490 nm is a measure of the number of living cells in the culture. Percent survival was calculated as follows: [formula]

CaSki cells [2] = assay: TUNEL apoptosis detection in transfected CaSki cells; assay type: cell-based, human
From the text: (§1) The DeadEnd Colorimetric Apoptosis Detection System (Promega, Wis.) is a modified TUNEL (TdT-mediated dUTP Nick-End Labeling) assay in which the enzyme Terminal deoxynucleotidyl Transferase (TdT) incorporates biotinylated nucleotides at the 3′-OH DNA ends (1, 20). Streptavidin horseradish-peroxidase is then bound to the biotinylated nucleotides, which are detected by hydrogen peroxide and diaminobenzidine (DAB), a stable chromogen. Using this procedure, apoptotic nuclei stained dark brown when visualized under a light microscope.

untransfected cell lines = assay: TUNEL staining of untransfected cell lines; assay type: cell-based; details: 20.0 μg/ml, six to eight days (data not shown)
From the text: as §1

[3] = taken orally by patients, clinical trials (Sugawara et al. 2000); cited from earlier work
SiHa cells [4] = assay: MTS cell proliferation assay, GCV on transfected SiHa cells; assay type: cell-based, human; details: SiHa cells transfected with pNSGLTK-8, 20.0 μg/ml
Procedure: (§2) Percent survival was calculated as follows: [formula]

HeLa cells = assay: GCV killing of transfected HeLa cells; assay type: cell-based, human; details: HeLa cells transfected with pNSGLTK-8; 20.0 μg/ml, two weeks (data not shown)
Procedure: as §2

HSC3 cells = assay: GCV cytotoxicity on transfected HSC3 cells; assay type: cell-based, human; details: HSC3 cells transfected with pNSGLTK-8; different concentrations, 6 days
Procedure: as §2

[5] = test system: VERO—African Green Monkey kidney cell line; assay: GCV cytotoxicity on transfected VERO cells; assay type: cell-based; details: VERO cells transfected with pNSGLTK-8; different concentrations, 6 days
From the text: (§3) To test the specificity of the methods described herein, an HPV positive cell line (CaSKi) and four HPV-negative cell lines were transfected with the plasmid plasmid pNSGLTK-8 described herein.

[6] = test system: Human oral squamous cell carcinoma cell, SSC9; assay: GCV cytotoxicity on transfected SSC9 cells; assay type: cell-based; details: SSC9 cells transfected with pNSGLTK-8; different concentrations, 6 days
From the text: as §3

SiHa cells [7] = assay: TUNEL apoptosis detection in transfected SiHa cells; assay type: cell-based, human; details: SiHa cells transfected with pNSGLTK-8; 20.0 μg/ml GCV, eight to ten days
From the text: as §1

CaSki cells [8] = assay: Confocal microscopy of HSV1-TK protein and PI nuclear staining in transfected CaSki cells; assay type: cell-based, human; details: CaSki cells transfected with pNSGLTK-8; 20 ug/ml GCV for 2 days
Procedure: CaSki cells were transfected with HPV16 LCR driven HSV1-TK construct (pNSGLTK-8). After 48 hours, cell were fixed and HSV-TK protein was detected using polyclonal rabbit anti-HSV1-TK antibody and FITC-conjugated goat anti-rabbit secondary antibody. The nuclear staining was done with propidium iodide. The cells were examined by confocal microscopy.
Cell were fixed and HSV1-TK protein was detected using polyclonal rabbit anti-HSV1-TK antibody and FITC-conjugated goat anti-rabbit secondary antibody. The nuclear staining was done with propidium iodide. The cells were examined by confocal microscopy.

## Nc1nc2c(ncn2COCCO)c(=O)[nH]1 [ACV, acyclovir]
CaSki cells [1]
  effect on cell viability: refractory
  growth inhibition: approximately 80%
CaSki cells [1]; CaSki cells transfected with pNSGLTK-8, ten days exposure
  concentration showing cytotoxic effects: 30000 ng/mL
CaSki cells [2]; cells transfected with pNSGLTK-8, 20.0 μg/ml ACV, six days (FIG. 12: CaSki)
  apoptosis (TUNEL staining, morphology): Typical apoptotic morphology of TUNEL-stained nuclei
Untransfected cell lines
  apoptotic cells (TUNEL staining): did not show an increase in apoptotic cells

## CC(C)[C@H](N)C(=O)OCC(CO)OCn1cnc2c(=O)nc(N)[nH]c21 (stereo partly shown) [valganciclovir]
[3]
  bioavailability: enhance the bioavailability of ganciclovir

## Nc1nc(O)c2ncn(COC(CO)CO)c2n1 [GCV, ganciclovir]
CaSki cells [1]; CaSKi cells transfected with pNSGLTK-8, 6 days exposure
  cytotoxicity: cytotoxicity is restricted to HPV positive cell line CaSKi only
CaSki cells [1]
  effect on cell viability: No significant effect on cell viability
  growth inhibition: approximately 80%
CaSki cells [1]; CaSki cells transfected with pNSGLTK-8, 0, 5, 10, 20 μg/ml GCV, six days
  effect on cell viability, dose dependence: dose-dependent effect
CaSki cells [1]; CaSki cells transfected with pNSGLTK-8, 20.0 μg/ml, 10 days
  cells killed: more than 95%
CaSki cells [1]; CaSki cells transfected with pNSGLTK-8, 20.0 μg/ml, six days
  maximal cell death: approximately 80%
SiHa cells [4]; six days
  cells killed: approximately 42%
SiHa cells [4]; two weeks (data not shown)
  cells killed: more than 90%
HeLa cells
  cells killed: more than 90%
HSC3 cells
  cytotoxic effect: did not show any significant cytotoxic effect
[5]
  cytotoxic effect: did not show any significant cytotoxic effect
[6]
  cytotoxic effect: did not show any significant cytotoxic effect
CaSki cells [2]; CaSki cells transfected with pNSGLTK-8, 20.0 μg/ml GCV, four days
  apoptosis (TUNEL staining, morphology): characteristic apoptotic morphology
SiHa cells [7]
  apoptosis (TUNEL staining, morphology): significant cell death associated with typical apoptotic morphology
Untransfected cell lines
  apoptotic cells (TUNEL staining): did not show an increase in apoptotic cells
CaSki cells [8]
  nuclear staining by PI: majority of nuclei look disrupted due to early apoptosis
